# Marks after values point to notes of the source that are not given here.
# How the values were obtained:
# [1] = tested on: CIP.choline-phosphate cytidylyltransferase (CT); details: administration of L-cycloserine; cited from earlier work
# [2] = cited from earlier work
# [3] = tested on: apoE KO mice; test: Atherosclerotic lesions: aorta root assay and en face assay; assay type: in vivo, mouse; details: 2 months of myriocin administration, p<0.01; for reduction in mean whole aortic lesion areas compared with controls: en face; for reduction in mean proximal aortic lesion areas compared with controls: root assay
# Description: This set of pictures is representative of seven sets. FIGS. 8B and 8C depict quantification of atherosclerotic lesions in the proximal aorta by root assay in mice fed a chow diet (FIG. 8B) or a high fat, high cholesterol diet (FIG. 8C). The procedure for root assay was described previously (JBC 15). FIGS. 8D and 8E depict quantification of atherosclerotic lesions in whole aorta by en face analysis in mice fed a chow diet (FIG. 8D) or a high fat, high cholesterol diet (FIG. 8E). The procedure for en face analysis was described previously (JBC 16). Values are mean ±S.D. *, p<0.001; n=7.
# At the end of the myriocin treatment period, the mice were sacrificed, and the hearts and proximal aortas as well as the whole aortas were removed, dissected, and photographed. An aorta root assay and an en face assay were performed as described previously (JBC 15, 16).
# [4] = tested on: apoE KO mice; test: Apolipoprotein analysis using SDS-PAGE; assay type: in vivo, mouse
# Experimental: (§1) Fasting plasma was collected for fast protein liquid chromatography (FPLC) separation and lipid measurement. Total cholesterol, phospholipids and triglyceride inplasma, and lipoproteins were assayed by enzymatic methods (WakoPure Chemical Industries Ltd., Osaka, Japan). Plasma sphingomyelin was measured as described previously (JBC13). PC concentration was obtained by subtracting SM from total phospholipid concentration. Apolipoprotein analysis using SDS-PAGE was also done as describedpreviously (JBC 14).
# [5] = tested on: apoE KO mice; test: FPLC lipid distribution among lipoproteins with or without myriocin; assay type: in vivo, mouse
# Experimental: Aliquots of 200 μl of pooled plasma from mice (n=7) with or without myriocin treatment were analyzed by FPLC (V, VLDL; L, LDL; and H, HDL). An aliquot of each fraction was used for the determination of SM (FIG. 6A), PC (FIG. 6B), and cholesterol (FIG. 6C).
# Aliquots of 200 μl of pooled plasma from mice (n=7) with or without myriocin treatment were analyzed by FPLC (V, VLDL; L, LDL; and H, HDL). An aliquot of each fraction was used for the determination of SM (FIG. 7A), PC (FIG. 7B), and cholesterol (FIG. 7C).
# as §1
# To investigate the lipid distribution among the lipoproteins with or without myriocin treatment, FPLC was utilized to fractionize lipoproteins and measured SM, PL, and cholesterol in each fraction.
# [6] = molecular target: T1, SPT (Mus musculus, UniProt O35704+P97363); test: SPT activity in liver of myriocin-treated apoE KO mice; assay type: in vivo; details: myriocin 0.3 mg/kg intraperitoneally every other day for 8 weeks
# T1 construct: myriocin treated mice had 50% less SPT activity in the liver than the controls; from tissue; host or cells: liver of apoE KO mice (The Jackson Laboratory) treated in vivo with myriocin
# T1 sequence (O35704 1-473): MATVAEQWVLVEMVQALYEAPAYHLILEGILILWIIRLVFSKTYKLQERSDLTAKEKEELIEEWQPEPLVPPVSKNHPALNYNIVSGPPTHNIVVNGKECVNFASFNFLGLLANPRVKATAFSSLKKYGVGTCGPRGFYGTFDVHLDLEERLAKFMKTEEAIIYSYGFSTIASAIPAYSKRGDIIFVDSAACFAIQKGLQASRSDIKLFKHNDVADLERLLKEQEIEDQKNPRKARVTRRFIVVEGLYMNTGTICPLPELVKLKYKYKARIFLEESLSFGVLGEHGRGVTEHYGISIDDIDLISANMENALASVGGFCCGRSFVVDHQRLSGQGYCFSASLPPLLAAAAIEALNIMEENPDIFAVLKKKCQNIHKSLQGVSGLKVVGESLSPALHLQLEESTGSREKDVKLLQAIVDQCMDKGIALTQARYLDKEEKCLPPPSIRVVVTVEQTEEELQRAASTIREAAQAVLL
# T1 sequence (P97363 1-560): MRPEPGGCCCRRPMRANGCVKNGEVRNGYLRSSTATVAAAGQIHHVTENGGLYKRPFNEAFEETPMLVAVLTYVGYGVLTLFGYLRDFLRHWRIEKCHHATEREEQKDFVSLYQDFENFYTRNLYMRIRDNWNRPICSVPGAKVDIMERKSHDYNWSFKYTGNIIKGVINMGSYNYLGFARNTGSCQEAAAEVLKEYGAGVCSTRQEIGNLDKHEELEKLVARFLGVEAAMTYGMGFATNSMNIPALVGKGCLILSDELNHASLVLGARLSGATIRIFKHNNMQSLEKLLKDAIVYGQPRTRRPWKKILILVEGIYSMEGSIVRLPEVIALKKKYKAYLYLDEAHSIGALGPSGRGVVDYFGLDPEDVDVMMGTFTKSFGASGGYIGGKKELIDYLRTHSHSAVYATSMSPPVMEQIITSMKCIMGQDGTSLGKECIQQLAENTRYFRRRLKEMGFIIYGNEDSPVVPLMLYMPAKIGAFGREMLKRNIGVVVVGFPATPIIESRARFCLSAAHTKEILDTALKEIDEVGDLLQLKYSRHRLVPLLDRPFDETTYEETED
# T1 sequence (Q8R207 1-71 partner): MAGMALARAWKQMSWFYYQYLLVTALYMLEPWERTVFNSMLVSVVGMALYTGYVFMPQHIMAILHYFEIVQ
# Experimental: Each mRNA level was expressed as a ratio to β-Actin mRNA. Liver tissues from Sptlc1 and Sptlc2-deficient, as well as wild type, mice were homogenized, and SPT activity was measured with ^3H-serine and palmitoyl-coenzyme A for substrates, as previously described (15).
# (§2) Eight-week-old apoE KO micewere purchased from The Jackson Laboratory (Bar Harbor, Me.). Myriocin (0.3 mg/kg) (Biomol Research Laboratories Inc.) or phosphate buffered saline was injected intraperitoneally every other day for 8 weeks. The animals were on Purina Rodent Chow (catalog number 5001) or a high fat, high cholesterol diet (20% milk fat and 0.15% cholesterol; Harlan Teklad, Madison, Wis.).
# In the present invention, two groups of 8-week-old apoE KO mice were utilized. Group 1 (n=7) and group 2 (n=7) animals were injected with 100 μl of myriocin (0.3 mg/kg) or phosphate-buffered saline, respectively, every other day for 8 weeks. As expected, myriocin treated mice had 50% less SPT activity in the liver than the controls.
# [7] = tested on: apoE KO mice; test: Plasma sphingolipid analysis by mass spectrometry after myriocin administration; assay type: in vivo, mouse; details: for Plasma C14Cer / Plasma C16Cer / Plasma C18:1Cer / Plasma C18Cer / Plasma C20Cer / Plasma C24:1Cer / Plasma C24Cer / Plasma DHSph / Plasma DHSph-1P / Plasma S1P / Plasma Sph: myriocin 0.3 mg/kg i.p. 8 weeks, n=7
# Experimental: as §2
# Plasma sphingosinebases, sphingoid base-1-phosphates, and ceramide species were performed on a Thermo Finnigan TSQ 7000 triple quadrupole mass spectrometer operating in a multiple reaction monitoring, positive ionization mode at the Department of Biochemistry and Molecular Biology, Medical University of South Carolina, on a fee-for-service basis. Briefly, 250 μl of mouse plasma was fortified with the internal standards (IC17 base D-erythro-sphingosine (17C-Sph), C17 sphingosine-1-phosphate (17C—S1P), N-palmitoyl-D-erythro-C13 sphingosine (13C-Cer), and heptadecanoyl-D-erythro-sphingosine (C17-Cer)) and extracted with ethyl acetate/iso-propanol/water (60:30:10) (v/v) solvent system. After evaporation and reconstitution in 100 μl of methanol, samples were injected onto the Surveyor/TSQ 7000 liquid chromatography/mass spectrometry system, and gradient was eluted from a BDSHypersil C8, 150×3.2-mm, 3-μm particle size column with a 1 mM methanolic ammonium formate, 2 mM aqueous ammonium formate mobile phase system. Peaks corresponding to the target analytes and internal standards were collected and processed using the Xcalibur software system. Quantitative analysis was based on the calibration curves generated by spiking an artificial matrix with the known amounts of the target analyte synthetic standards and an equal amount of the internal standards. The target analyte/internal standard peak area ratios were plotted against analyte concentration. The target analyte/internal standard peak area ratios from the samples were similarly normalized to their respective internal standards and compared with the calibration curves using a linear regression model.
# [8] = tested on: apoE KO mice; test: Plasma lipid measurement after myriocin administration; assay type: in vivo, mouse; details: for Plasma PC: PC = total phospholipid minus SM; for Plasma SM: n=7; for PC/SM ratio increased / plasma PC levels increased / plasma SM levels decreased: vs control; for PC/SM ratio increased / plasma PC levels increased: p<0.0001
# Experimental: as §2, §1
# [9] = tested on: T-lymphocyte populations; details: myriocin 1 mg/kg (but not 0.3 mg/kg); cited from earlier work
# [10] = tested on: apoE KO mice; details: oral myriocin, high cholesterol diet; cited from earlier work
# [11] = molecular target: mouse Sptlc2 (serine palmitoyl-CoA transferase subunit 2) (mouse) (UniProt P97363); test: cell-based or functional assay
# [12] = molecular target: mouse Sptlc1 (serine palmitoyl-CoA transferase subunit 1) (mouse) (UniProt O35704); test: cell-based or functional assay
# [13] = high fat, high cholesterol diet
# [14] = chow diet, pooled plasma n=7, FIG. 6
# [15] = high fat diet, pooled plasma n=7, FIG. 7
# [16] = chow diet, myriocin 0.3 mg/kg i.p. 8 weeks
# [17] = high fat diet, myriocin 0.3 mg/kg i.p. 8 weeks
# [18] = high fat, high cholesterol (Western type) diet 8 weeks
molecule,measurement,setting,value
N[C@@H]1CON=C1O [L-cycloserine],stimulation of CT activity,[1],74%
"CCCCCCC(=O)CCCCCC/C=C/C[C@@H](O)[C@H](O)[C@@](N)(CO)C(=O)O [Myriocin, myriocin]",toxicity of oral administration,[2],serious gastrointestinal toxicity
same,reduction in mean whole aortic lesion areas compared with controls,[3]; Western type diet,37%
same,reduction in mean proximal aortic lesion areas compared with controls,[3]; Western type diet,39%
same,reduction in mean whole aortic lesion areas compared with controls,[3]; chow diet,36%
same,reduction in mean proximal aortic lesion areas compared with controls,[3]; chow diet,42%
same,"levels of apolipoproteins, including apoB100, apoB48, and apoA-I",[4]; chow diet,no significant changes
same,"levels of apolipoproteins, including, apoB48, and apoA-I",[4]; [13],no significant changes
same,PC in FPLC lipoprotein fractions,[5]; [14],increased
same,SM in FPLC lipoprotein fractions,[5]; [14],significantly decreased
same,cholesterol in FPLC lipoprotein fractions,[5]; [14],no significant effect
same,PC in FPLC lipoprotein fractions,[5]; [15],increased
same,SM in FPLC lipoprotein fractions,[5]; [15],dramatically decreased
same,cholesterol in FPLC lipoprotein fractions,[5]; [15],no effect
same,less SPT activity in the liver than the controls,[6],50%
same,"plasma Cer, change after myriocin treatment",[7]; chow diet,significantly decreased
same,"plasma S1P, change after myriocin treatment",[7]; chow diet,significantly decreased
same,"plasma Sph, change after myriocin treatment",[7]; chow diet,significantly decreased
same,Plasma C14Cer,[7]; chow diet,12 ± 2^a nM
same,Plasma C16Cer,[7]; chow diet,11 ± 3^a nM
same,Plasma C18:1Cer,[7]; chow diet,2 ± 1^a nM
same,Plasma C18Cer,[7]; chow diet,51 ± 8^a nM
same,Plasma C20Cer,[7]; chow diet,35 ± 9^a nM
same,Plasma C24:1Cer,[7]; chow diet,854 ± 144^a nM
same,Plasma C24Cer,[7]; chow diet,1321 ± 22^a nM
same,Plasma DHSph,[7]; chow diet,30 ± 3 nM
same,Plasma DHSph-1P,[7]; chow diet,9 ± 5^a nM
same,Plasma S1P,[7]; chow diet,58 ± 9^a nM
same,Plasma Sph,[7]; chow diet,127 ± 8^a nM
same,Plasma S1P,"[7]; chow diet, listed as myriocin",< 100 nM
same,Plasma C14Cer,[7]; high fat diet,20 ± 2 nM
same,Plasma C16Cer,[7]; high fat diet,12 ± 6^a nM
same,Plasma C18:1Cer,[7]; high fat diet,9 ± 1^a nM
same,Plasma C18Cer,[7]; high fat diet,36 ± 14^a nM
same,Plasma C20Cer,[7]; high fat diet,45 ± 11^a nM
same,Plasma C24:1Cer,[7]; high fat diet,1009 ± 134^a nM
same,Plasma C24Cer,[7]; high fat diet,1708 ± 426^a nM
same,Plasma DHSph,[7]; high fat diet,20 ± 1^a nM
same,Plasma DHSph-1P,[7]; high fat diet,10 ± 2^a nM
same,Plasma S1P,[7]; high fat diet,42 ± 19^a nM
same,Plasma Sph,[7]; high fat diet,114 ± 19^a nM
same,"plasma Cer, change after myriocin treatment",[7]; [13],dramatically decreased
same,"plasma S1P, change after myriocin treatment",[7]; [13],dramatically decreased
same,"plasma Sph, change after myriocin treatment",[7]; [13],dramatically decreased
same,"total cholesterol levels, change after myriocin",[8]; chow diet,not significantly changed
same,"triglyceride levels, change after myriocin",[8]; chow diet,not significantly changed
same,PC/SM,[8]; [16],12.1 ± 0.2a
same,Plasma Chol,[8]; [16],660 ± 105 mg/dL
same,Plasma TG,[8]; [16],75 ± 19 mg/dL
same,Plasma PC,[8]; [16],399 ± 59^a mg/dl
same,Plasma SM,"[8]; chow diet, myriocin 0.3 mg/kg i.p. every other day 8 weeks, mean ± S.D.",33 ± 3^a mg/dl
same,PC/SM ratio increased,[8]; chow diet,317%
same,plasma PC levels increased,[8]; chow diet,91%
same,plasma SM levels decreased,"[8]; chow diet, p<0.001",54%
same,PC/SM,[8]; [17],16.9
same,Plasma Chol,[8]; [17],1807 ± 342 mg/dL
same,Plasma TG,[8]; [17],107 ± 27 mg/dL
same,Plasma SM,[8]; [17],47 ± 14^a mg/dl
same,Plasma PC,[8]; [17],795 ± 97^a mg/dl
same,plasma SM levels decreased,[8]; [18],59%
same,PC/SM ratio increased,[8]; [18],380%
same,plasma PC levels increased,[8]; [18],100%
same,"total cholesterol levels, change after myriocin",[8]; [13],not significantly changed
same,"triglyceride levels, change after myriocin",[8]; [13],not significantly changed
same,effect on T-lymphocyte populations in mice,[9],reduces T-lymphocyte populations
same,atherosclerotic lesions,[10],dramatic reduction
same,plasma SM levels,[10],significant reduction
same,plasma cholesterol levels,[10],significant reduction
mouse Sptlc1 (serine palmitoyl-CoA transferase subunit 1) (from UniProt O35704 1-473) (enzyme),decrease in Sptlc1 protein mass in Sptlc2+/- mouse liver against WT (Western blot of liver homogenate),[11],70%
mouse Sptlc2 (serine palmitoyl-CoA transferase subunit 2) (from UniProt P97363 1-560) (enzyme),decrease in Sptlc2 protein mass in Sptlc1+/- mouse liver against WT (Western blot of liver homogenate),[12],53%
